Patent US10765114B2, “4-amino-6-(pyridyl and 2-substitutedphenyl)-picolinates and 6-amino-2-(pyridyl and 2-substitutedphenyl)-pyrimidine-4-carboxylates and their use as herbicides” (Dow AgroSciences LLC, priority 2013, dated 2020)

What was measured:
Experiment in all cases: Post-Emergent Test I
Assay type in all cases: in vivo
Details in all cases: postemergence
[1] = test system: SETFA: giant foxtail (Setaria faberi)
Procedure: (§1) Post-Emergent Test I Seeds test species were obtained from commercial suppliers and planted into a 13 centimeter (cm) diameter-round pot containing soil-less media mix (Metro-Mix 360®, Sun Gro Horticulture). Postemergence treatments were planted 8-12 days prior to application and cultured in a greenhouse equipped with supplemental light sources to provide a 16 hour (h) photoperiod at 24-29° C. All pots were surface irrigated.
(§2) A weighted amount, determined by the highest rate to be tested, of each compound was dissolved in 1.3 mL acetone-dimethyl sulfoxide (DMSO; 97:3, volume per volume (v/v)) and diluted with 4.1 mL water-isopropanol-crop oil concentrate (78:20:2, v/v/v) containing 0.02% Triton X-155 to obtain concentrated stock solutions. Additional application rates were obtained by serial dilution of the high rate solution into a solution containing appropriate volume of 97:3 v/v mixture of acetone and DMSO and appropriate volume of an aqueous mixture of water, isopropyl alcohol, crop oil concentrate (78:20:2, v/v/v) containing 0.02% Triton X-155.
(§3) Formulated compounds were applied using a DeVilbiss® compressed air sprayer at 2-4 pounds per square inch (psi). Following treatment, pots were returned to the greenhouse for the duration of the experiment. All pots were sub-irrigated as need to provide optimum growing conditions. All pots were fertilized one time per week by subirrigating with Peters Peat-Lite Special® fertilizer (20-10-20).
(§4) All evaluations were made visually on a scale of 0 to 100 where 0 represents no activity and 100 represents complete plant death and presented as indicated in Table A. Visual assessments of plant injury were made based on growth reduction, discoloration, leaf deformity and necrosis

[2] = test system: ECHSS (ECHCG: barnyardgrass (Echinochloa crus-galli))
Procedure: as §1, §2, §3, §4

[3] = test system: IPOSS (IPOHE: ivyleaf morningglory (Ipomoea hederecea))
Procedure: as §1, §2, §3, §4

[4] = test system: AVEFA: wild oats (Avena fatua)
Procedure: as §1, §2, §3, §4

[5] = test system: AMARE: redroot pigwseed (Amaranthus retroflexus)
Procedure: as §1, §2, §3, §4

[6] = test system: HELAN: sunflower (Helianthus annuus)
Procedure: as §1, §2, §3, §4

Compound | Visual Growth Reduction (%) After Application, SETFA ([1]; 3.8 kg ai/ha) | Visual Growth Reduction (%) 14 Days After Application, ECHSS ([2]; 3.8 kg ai/ha) | Visual Growth Reduction (%) 14 Days After Application, IPOSS ([3]; 3.8 kg ai/ha) | Visual Growth Reduction (%) 14 Days After Application, AVEFA ([4]; 3.8 kg ai/ha) | Visual Growth Reduction (%) 14 Days After Application, AMARE ([5]; 3.8 kg ai/ha) | Visual Growth Reduction (%) 14 Days After Application, HELAN ([6]; 3.8 kg ai/ha) | Visual Growth Reduction (%) After Application, SETFA ([1]; 4 kg ai/ha) | Visual Growth Reduction (%) 14 Days After Application, ECHSS ([2]; 4 kg ai/ha) | Visual Growth Reduction (%) 14 Days After Application, IPOSS ([3]; 4 kg ai/ha) | Visual Growth Reduction (%) 14 Days After Application, AVEFA ([4]; 4 kg ai/ha) | Visual Growth Reduction (%) 14 Days After Application, AMARE ([5]; 4 kg ai/ha) | Visual Growth Reduction (%) 14 Days After Application, HELAN ([6]; 4 kg ai/ha)
COC(=O)c1nc(-c2ccc(Cl)nc2F)cc(N)c1Cl [Compound 17, methyl 4-amino-5,6′-dichloro-2′-fluoro-[2,3′-bipyridine]-6-carboxylate] | B (85-94) | F (30-44) | A (95-100) | F (30-44) | C (75-84) | A (95-100) | – | – | – | – | – | –
COC(=O)c1nc(-c2ccc(C(F)(F)F)nc2)cc(N)c1Cl [Compound 4] | – | – | – | – | – | – | A (95-100) | C (75-84) | A (95-100) | B (85-94) | A (95-100) | A (95-100)
